Reference: ChEMBL document CHEMBL3045460, “Antifungal, mosquito deterrent, and larvicidal activity of N-(benzylidene)-3-cyclohexylpropionic acid hydrazide derivatives” (2013)
Converted amounts (≈) assume the structure as drawn. The source made the active and inactive calls. The rule behind the calls is not given here.

How the values were obtained:
[1] = system: Colletotrichum fragariae; assay: Antifungal activity against Colletotrichum fragariae assessed as growth inhibition at 0.3 to 30 uM after 48 to 72 hr by 96-well microdilution broth assay; type: functional, organism-based
[2] = system: Colletotrichum acutatum; assay: Antifungal activity against Colletotrichum acutatum assessed as growth inhibition at 0.3 to 30 uM after 48 to 72 hr by 96-well microdilution broth assay; type: functional, organism-based
[3] = system: Botrytis cinerea; assay: Antifungal activity against Botryotinia fuckeliana assessed as growth inhibition at 0.3 to 30 uM after 48 to 72 hr by 96-well microdilution broth assay; type: functional, organism-based
[4] = system: Fusarium oxysporum; assay: Antifungal activity against Fusarium oxysporum assessed as growth inhibition at 0.3 to 30 uM after 48 to 72 hr by 96-well microdilution broth assay; type: functional, organism-based
[5] = system: Aedes aegypti; assay: Insecticidal activity against female adult Aedes aegypti fed on CPDA-1+ATP assessed as biting deterrence activity at 25 nmol/cm2 by six-celled K & D module bioassay; type: functional
[6] = system: Colletotrichum gloeosporioides; assay: Antifungal activity against Colletotrichum gloeosporioides assessed as growth inhibition at 0.3 to 30 uM after 48 to 72 hr by 96-well microdilution broth assay; type: functional, organism-based
[7] = system: Phomopsis obscurans; assay: Antifungal activity against Phomopsis obscurans assessed as growth inhibition at 30 uM after 144 hr by 96-well microdilution broth assay; type: functional; settings: Paraphomopsis obscurans, read-out: GI
[8] = system: Diaporthe ampelina; assay: Antifungal activity against Diaporthe ampelina assessed as growth inhibition at 30 uM after 144 hr by 96-well microdilution broth assay; type: functional; settings: read-out: GI
[9] = system: Aedes aegypti; assay: Insecticidal activity against first-instar larval stage of Aedes aegypti assessed as mortality at 50 ppm after 24 hr; type: functional
[10] = system: Aedes aegypti; assay: Insecticidal activity against first-instar larval stage of Aedes aegypti assessed as mortality at 0.8 ppm after 24 hr; type: functional, organism-based
[11] = system: Aedes aegypti; assay: Insecticidal activity against first-instar larval stage of Aedes aegypti assessed as mortality after 48 hr; type: functional
[12] = system: Aedes aegypti; assay: Insecticidal activity against first-instar larval stage of Aedes aegypti assessed as mortality at 1.6 ppm after 48 hr; type: functional
[13] = system: Aedes aegypti; assay: Insecticidal activity against first-instar larval stage of Aedes aegypti assessed as mortality at 0.8 ppm after 48 hr; type: functional
[14] = system: Aedes aegypti; assay: Insecticidal activity against first-instar larval stage of Aedes aegypti assessed as mortality at 25 ppm after 24 hr; type: functional
[15] = system: Aedes aegypti; assay: Insecticidal activity against first-instar larval stage of Aedes aegypti assessed as mortality at 100 ppm after 24 hr; type: functional
[16] = system: Aedes aegypti; assay: Insecticidal activity against first-instar larval stage of Aedes aegypti assessed as mortality at 1.6 ppm after 24 hr; type: functional, organism-based
[17] = system: Aedes aegypti; assay: Insecticidal activity against first-instar larval stage of Aedes aegypti assessed as mortality after 24 hr; type: functional

Row | Compound | growth inhibition (GI) [1] | growth inhibition (GI) [2] | growth inhibition (GI) [3] | growth inhibition (GI) [4] | Activity [5] | growth inhibition (GI) [6] | inhibition of growth at 30 µM [7] | other results
1 | Cc1ccc(/C=N\NC(=O)CCC2CCCCC2)cc1 | inactive | inactive | inactive | inactive | 22% | inactive | 86.7% | 
2 | CCN(CC)C(=O)c1cccc(C)c1 [DIETHYLTOLUAMIDE] |  |  |  |  | 80% |  |  | 
3 | O=C(CCC1CCCCC1)N/N=C\c1ccc(F)cc1 | inactive | inactive | inactive | inactive |  | inactive | 86.9% | inhibition of growth at 30 µM [8]: 83.6%
4 | O=C(CCC1CCCCC1)N/N=C\c1ccc([N+](=O)[O-])cc1 | inactive | inactive | inactive | inactive | 22% | inactive |  | 
5 | O=C(CCC1CCCCC1)N/N=C\c1ccccc1 | inactive | inactive | inactive | inactive | >50% | inactive |  | 
6 | CN(C)c1ccc(/C=N\NC(=O)CCC2CCCCC2)cc1 | inactive | inactive | inactive | inactive | 22% | inactive |  | 
7 | O=C(CCC1CCCCC1)N/N=C\c1ccc(Br)cc1 | inactive | inactive | inactive | inactive | >50% | inactive |  | 
8 | COc1ccc(/C=N\NC(=O)CCC2CCCCC2)cc1 | inactive | inactive | inactive | inactive | 22% | inactive | 74.1% | 
9 | O=C1C2CC=CCC2C(=O)N1SC(Cl)(Cl)Cl (centres undefined) [CAPTAN] |  |  |  |  |  |  | 100% | inhibition of growth at 30 µM [8]: 99.2%
10 | O=C(CCC1CCCCC1)N/N=C\c1ccc(O)cc1 | inactive | inactive | inactive | inactive | 22% | inactive |  | 
11 | O=C(CCC1CCCCC1)N/N=C\c1ccc(Cl)cc1 | inactive | inactive | inactive | inactive | >50% | inactive |  | 
12 | CC(C)c1ccc(/C=N\NC(=O)CCC2CCCCC2)cc1 | inactive | inactive | inactive | inactive | 22% | inactive | 99.5% | mortality at 50 ppm [9]: 70%; Activity [10]: inactive; LD90 [11]: 19.1 ppm; LC50 ([11]; Aedes aegypti, Instar larval stage, 48 h, read-out: LD50 (the source's name)): 4.35 µg/mL (≈ 14.5 µM); mortality at 1.6 ppm [12]: 14.7%; mortality at 0.8 ppm [13]: 4%; mortality at 25 ppm [14]: 30%; mortality at 100 ppm [15]: 80%; Activity [16]: inactive; LD90 [17]: 297.8 ppm; LC50 ([17]; Aedes aegypti, Instar larval stage, 24 h, read-out: LD50 (the source's name)): 57.4 µg/mL (≈ 191 µM); inhibition of growth at 30 µM [8]: 94%
